Results taken from patent publication US5075464A, “17β-(cyclopropylamino)androstene derivatives” (Merrell Dow Pharmaceuticals Inc., priority 1989, dated 1991).

Molecular target: T1, enzymes in the synthesis of aldosterone (Rattus norvegicus, UniProt P30099)
T1 construct: adrenal capsule/glomerulosa homogenates were prepared (6 mg/ml); from tissue; host or cells: adrenal capsule/glomerulosa of sodium-deficient young male Sprague-Dawley rats (homogenate, 500xg supernatant)
Experiment: inhibition of aldosterone formation from [3H]-DOC in adrenal capsule/glomerulosa homogenates
Assay type: biochemical, Sprague-Dawley rats
Details: Kitz-Wilson plots, rat adrenal capsule/glomerulosa homogenate
Procedure: Young male Sprague-Dawley rats were maintained on a sodium-deficient diet for about two weeks prior to use. From these animals, adrenal capsule/glomerulosa homogenates were prepared (6 mg/ml) in pH 7.4 assay buffer [MgCl2 8.5 mM, CaCl2 2.7 mM, KCl 3.13 mM, NaCl 7.591 mM, TRIS 50 mM and 0.1% triethylamine] and centrifuged 500xg for 10 minutes.
Assays were conducted in 35 ml glass tubes maintained at 25° C. in a Dubnoff shaker with 95% O2 /5% CO2. The tubes contained the following material: 100 μl of an NADPH+ generating system, 300 μl of adrenal capsular/glomerulosa cytosol, and 50 μl of test compound or buffer (control). After initial preincubation intervals of 20 minutes, the 10-minute assay was started by the addition of 50 μl of tritium-labelled substrate, i.e., 1 μM [^3 H]-DOC. Reactions were quenched by the addition of 5 ml of ethyl acetate and non-radiolabelled steroids were also added. […]
Substrate remaining and products formed were monitored by UV absorbance at 246 nm and the amount of steroid compound present was quantified by [^3 H] radioactivity. […] The Ki time-dependent inhibition and the t1/2 for enzyme inactivation at infinite inhibitor concentration (t50) was determined by the linear regression analyses of t1/2 vs. 1/[I] data of Kitz-Wilson plots Using this procedure, the following results were observed: […]

Compound | t50 (t1/2 for enzyme inactivation at infinite inhibitor concentration)
CN(C1CC1)[C@H]1CC[C@H]2[C@@H]3CCC4=CC(=O)CC[C@]4(C)[C@H]3CC[C@]12C [17β-[N-methyl(cyclopropylamino)]androst-4-en-3-one] | 15.4 min
CN(C1CC1)[C@H]1CC[C@H]2[C@@H]3CC=C4C[C@@H](O)CC[C@]4(C)[C@H]3CC[C@]12C [17β-[N-methyl(cyclopropylamino)]androst-5-en-3β-ol] | 9.0 min
